# Experimental data from PubChem BioAssay AID1508591.
# Settings: rat; liver microsomes; pH 7.4; 15.0 min; 1.0 µM
row,SMILES,half-life [min]
1,CCCS(=O)(=O)c1nc(NC2CC2)cc(-c2ccc3c(ccn3C3CC(C)(C)NC(C)(C)C3)c2)n1,> 30
2,CNc1nc2c(s1)C(c1ccc(Cl)cc1)CC(=O)N2 (configuration not stated),2.07
3,COc1cc(/C=C(\C#N)C(=O)c2ccc(O)c(O)c2)cc(I)c1O,> 30
4,COc1nccc(-c2nc(Nc3ccc(F)c(F)c3)c3ccccc3n2)c1OC,26
5,COc1ccc(-c2[nH]nc3ncc(-c4ccc(CO)cc4)nc23)cc1F,11.3
6,COc1ccc(Nc2cc3c(nc2OC)nc(CCc2ccccc2)n3C)cn1,19.5
7,NC(=O)C1CCN(c2nc(-c3ccc4c(c3)OCCO4)cs2)CC1,3.09
8,CCOc1ccc(N2CC(c3nc(-c4ccccn4)no3)CC2=O)cc1 (configuration not stated),> 30
9,Cc1cc(C)nc(NC(=S)N2CCN(c3cc(C(F)(F)F)nc4ccc(C(F)(F)F)cc34)CC2)c1,> 30
10,Cc1ccnc(NC(=S)N2CCN(c3cc(Cl)cc(Cl)c3)CC2)c1,> 30
11,CCOC(=O)N1CCc2c(sc(NCc3ccc(N(C)C)cc3)c2C(=O)Nc2ccc(OC)cc2)C1,> 30
12,O=C(O)c1ccncc1Nc1nn(CCN2CCC(F)(F)CC2)c2ccc(F)cc12,22.2
13,Cc1ccc(C)c(CN2CCC(CNC(=O)Nc3ccc(Br)cc3F)CC2)c1,3.58
14,Cc1cnc(-c2ccccc2C(C)C)nc1NCC1CN(c2cccnc2)C1,2.6
15,Cc1ccc(C(=O)Nc2ccc3oc(-c4cccnc4)nc3c2)cc1[N+](=O)[O-],13.2
16,CCOC(=O)C1CCN(C(=O)Nc2ccc3c(c2)nc(C)n3C)CC1,1
17,Cc1cc(C)cc(C(=O)Nc2ccc3c(N4CCCC4)ncnc3c2)c1,8.23
18,O=S(=O)(Nc1ccc(-c2cccnc2)c2cccnc12)c1cccc(C(F)(F)F)c1,1.25
19,Cc1cc(C)c(CNC(=O)c2nc(-c3cccc(CO)c3)cc3c2ccn3C)c(=O)[nH]1,8.11
20,FC(F)(F)c1cc(-c2ccc(CNc3nc(-c4ccccc4C(F)(F)F)nc4ccsc34)cc2)ccn1,14.8
21,CCC(CC)c1cc([C@H]2CN3CC[C@H]2C[C@@H]3CNC(C)=O)nc(-c2ccncc2)n1,10.9
22,O=c1[nH]c(C2CCCN(CC3CCCCC3)C2)nn1-c1ccc(Cl)cc1 (configuration not stated),> 30
23,COc1ccc(OC)c(N2C(=O)C(Cl)=C(N3CCCCC3)C2=O)c1,1.5
24,Cc1cccc(-n2cnc3cc(C(=O)N4CCCC(C)(C)C4)ccc32)c1,1.6
25,CC[C@H]1CN2CCC3CC(OC)C(OC)CC3[C@@H]2C[C@@H]1C[C@H]1NCCC2=C1CC(OC)=C(O)C2 (some centres not stated),> 30
26,CCc1[nH]c2ccc(CNC(=O)Cc3cnc4c(C)cccn34)cc2c1C,2.4

row,SMILES,half-life [min]
1,Cc1ccc(-c2nc3ccccc3o2)cc1NC(=O)COc1ccccc1,3.5
2,O=C(Nc1ccc(-c2nc3cc(NC(=O)c4ccccc4Cl)ccc3o2)cc1)c1ccccc1Cl,> 30
3,Cc1ccnc(NC(=O)C2CC(=O)N(c3n[nH]c4cc(Br)ccc34)C2)c1 (configuration not stated),> 30
4,Cc1cccc(-n2cnc3cc(C(=O)N4CCCC(C)C4)ccc32)c1 (configuration not stated),2.5
5,C#CC1(O)CCC2C3CCC4=C/C(=N/OCC(=O)NCC(=O)NC(C(=O)O)C(C)C)CC[C@]4(C)C3CC[C@@]21C (some centres not stated),> 30
6,Cc1ccc(-n2c(C)cc(-c3nnc4n3CCCCC4)c2C)cc1,1.62
7,COc1ccc(-n2nc(C3CCCN(C(=O)Cc4ccc(F)cc4)C3)[nH]c2=O)cc1 (configuration not stated),8.48
8,N#Cc1ccc(S(=O)(=O)Nc2cnccc2C(=O)Nc2nc(-c3ccccc3)cs2)cc1,> 30
9,Oc1c(CN2CCN(c3ccccn3)CC2)cc(Cl)c2cccnc12,3.23
10,O=C1CCCC2=C1C(c1[nH]ncc1Br)N=C(Nc1nc3ccccc3o1)N2 (configuration not stated),14
11,O=C(O)c1ccc(-c2c[nH]c3ncc(-c4ccccc4)cc23)cc1C1CCCC1,> 30
12,Clc1ccccc1CSc1nc2ncc(Br)cc2[nH]1,6.5
13,O=C1CCCCc2cc(O)c(O)cc21,> 30
14,COc1ccccc1OCCNCC(O)COc1cccc2[nH]c3ccccc3c12 (configuration not stated),1.52
15,CCc1cccc(CC)c1-n1c(C=C(C)C)c(C(=O)N2CCNCC2)cc(-c2nc(-c3ccc(C(F)(F)F)cc3)cs2)c1=O,> 30
16,COc1ccc(C2c3c(ncn(CCN4CCOCC4)c3=N)Oc3ccc4ccccc4c32)cc1OC (configuration not stated),3.6
17,O=C1CCCC2=C1C(c1[nH]ncc1Cl)N=C(Nc1nc3cc([S+](=O)([O-])N4CCOCC4)ccc3o1)N2 (configuration not stated),9.4
18,C#CCNC(=O)c1nc(-c2ccc([S+](C)(=O)[O-])cc2)c2ccccn12,> 30
19,Cc1ccccc1C(=O)Nc1sc2c(c1C(=O)NCc1ccco1)CCC(C(C)(C)C)C2 (configuration not stated),23.9
20,Cc1cccc(C)c1Nc1c(-c2ccccn2)nc2ccc(Cl)cn12,1.86
21,Cc1cccc(S(=O)(=O)Nc2cnccc2C(=O)Nc2nc(-c3ccccc3)cs2)c1,6
22,O=C1CCCC2=C1C1(CCSCC1)N=C(Nc1nc3ccccc3o1)N2,2.3
23,Cc1ccccc1C(=O)n1ccc2cc(-c3nc(NC(=O)Cc4ccc5c(c4)OCO5)sc3C)ccc21,> 30
24,N#Cc1cc(NC(=O)Nc2nnc(-c3ccncc3)s2)ccc1-c1cn[nH]c1,> 30
25,CC(C)(N)CNC(=O)CC1CCC2(CC1)OOC1(O2)C2CC3CC(C2)CC1C3 (configuration not stated),> 30
26,COc1cccc(CNc2ccc(S(=O)(=O)Nc3ncccn3)cc2)c1O,> 30

row,SMILES,half-life [min]
1,COc1ccc(C(=O)N2CCC3(CC2)CN(c2cccc(-c4ccccc4)c2)C3)cc1,22
2,CC(=O)Nc1cccc(Nc2nc3ccccc3n3c(C)nnc23)c1,> 30
3,CCn1c(C(=O)NCCc2ccc(OC)cc2)cc2sccc21,1.9
4,CC1=C(C(=O)Nc2nc3ccccc3s2)C(c2[nH]ncc2Cl)N=C(Nc2nc3ccccc3o2)N1 (configuration not stated),10.4
5,Cc1cc(C)nc(NC(=S)N2CCN(c3cccc(C(F)(F)F)c3)CC2)c1,> 30
6,O=C1CN(C(=O)CCC(=O)N2CCc3c(nc4cc(-c5ccccc5)[nH]n4c3=O)C2)c2ccccc2N1,> 30
7,CC(=O)c1c(C)[nH]c(C(=O)Nc2cccc([S+](=O)([O-])Nc3ccccn3)c2)c1C,> 30
8,Cn1nnnc1Sc1ncnc2scc(Br)c12,19.6
9,Cc1ccc(S(=O)(=O)Nc2ccccc2Nc2nc(-c3ccccc3)cs2)cc1,1.7
10,CC(C)(C)CN1CCNc2cc(Nc3ccccc3)ncc2C1,1.64
11,CCc1ccc(CNc2ccc3c(c2)ncn3C(C)(C)C)cc1,9.8
12,C[C@@H]1C(=O)O[C@H]2[C@H]1CC[C@@]1(C)Cc3sc(NS(=O)(=O)Cc4ccccc4)nc3[C@@H](C)[C@H]21,1.69
13,CCOC(=O)c1nn(-c2ccccc2)c(=O)c2c(N)scc12,2.12
14,COc1ccccc1CNc1ccc(S(=O)(=O)Nc2nccs2)cc1,2.8
15,FC(F)(F)Oc1cccc(Nc2nc(-c3ccncc3)nc3ccccc23)c1,19
16,C[C@@H]1CN(CC(=O)N2CC(C)(C)c3ncc(Cc4ccc(F)cc4)cc32)[C@@H](CN2CCOC[C@H]2C)CN1,7.57
17,c1cc(-c2cc(-c3ccncc3)c3cncn3c2)c2cc[nH]c2c1,5.63
18,CN(C)C(=O)c1nc(-c2ccc(Cl)cc2Cl)c2cnccn12,6.29
19,Oc1ccc(CNc2cccc(F)c2)c2cccnc12,4.1
20,CC(C)(C)C(O)C(Oc1ccc(Cl)cc1)n1cncn1 (configuration not stated),> 30
21,NC(=O)C1CCN(c2nc(-c3ccccc3-c3ccccc3)cs2)CC1,2.45
22,O=C(NC1CC1)c1nc(-c2cccnc2)c2ccccn12,21.8
23,O=C(c1ccccc1)N1CCC(c2nn(-c3ccc(F)cc3)c(=O)[nH]2)CC1,> 30
24,CCOc1ccc(C2c3c(oc4ccc(C)cc4c3=O)C(=O)N2CCCN(C)C)cc1 (configuration not stated),13.6
25,COc1cccc(CNc2ccc(S(=O)(=O)Nc3cccc(N4CCNCC4)c3)cc2)c1O,> 30
26,Nc1nc(Nc2ccc(S(N)(=O)=O)cc2)n(C(=S)Nc2c(F)cccc2F)n1,> 30

row,SMILES,half-life [min]
1,COc1ccc(/C=C2/C(=O)Nc3ccccc32)cc1O,> 30
2,COc1cccc(-c2csc(N3CCC(C(N)=O)CC3)n2)c1,1.33
3,O=C(Nc1nc(-c2ccccc2)cs1)c1ccncc1NS(=O)(=O)c1ccc(F)cc1,20
4,Cc1ccc(-n2ncc3c(NCCCn4ccnc4)ncnc32)cc1Cl,22.7
5,O=C(Nc1ccc(S(=O)(=O)Nc2nccs2)cc1)c1ccnc2ccccc12,> 30
6,C[C@@H](NC(=O)c1ncnc(N)c1Cl)c1ncc(C(=O)Nc2cc(C(F)(F)F)c(Cl)cn2)s1,> 30
7,CC(C)(O)C=CC(=O)[C@](C)(O)[C@H]1[C@H](O)C[C@]2(C)[C@@H]3CC=C4[C@@H](C=C(O)C(=O)C4(C)C)[C@]3(C)C(=O)C[C@@]12C,> 30
8,CSc1cc2c(s1)c1cnn(Cc3cccc(N)c3)c(=O)c1n2C,3.6
9,O=C(Nc1ccc(S(=O)(=O)Nc2nccs2)cc1)c1ccncc1,> 30
10,COc1ccc(-n2nc(C3CCN(C(=O)C4CC4)CC3)[nH]c2=O)cc1,> 30
11,Cc1ccnc(NC(=S)N2CCN(c3ccc(Cl)cc3Cl)CC2)c1,> 30
12,CC1=C(C(=O)NC2CCCCC2)C(c2ccccc2Br)N=C(Nc2nc3ccccc3o2)N1 (configuration not stated),7.4
13,Cn1cnc(-c2nccc3c(=O)[nH]c(OCCCC(F)(F)F)nc23)c1,16.5
14,Cc1cc(NS(=O)(=O)c2ccc(NC(=O)Cc3ccc(Cl)c(Cl)c3)cc2)no1,9.7
15,O=C1CCCC2=C1C(c1[nH]ncc1Cl)N=C(Nc1nc3cc(F)ccc3o1)N2 (configuration not stated),17
16,CCCc1ccc(C(=O)NC(=O)c2ccccc2O)cc1,2.37
17,O=C(c1nc(-c2ccc(Cl)nc2)c2ccccn12)N1CCCC1,8.91
18,Cc1ccc(-n2nc3c(=O)n(CCCC(=O)NC(C)c4ccccc4)nc(C)c3c2C)cc1 (configuration not stated),2.27
19,Cc1ccc(C(=O)Nc2nc(-c3ccccn3)cs2)cc1S(=O)(=O)N1CCOCC1,4.16
20,CN1C(=O)CN=C(c2ccccc2Cl)c2cc(Cl)ccc21,3.04
21,CN1CCN(CCCN2c3ccccc3Sc3ccc(S(=O)(=O)N(C)C)cc32)CC1,1.95
22,CCN(CC)S(=O)(=O)c1ccc(N2CCCC2)c(NS(=O)(=O)c2ccccc2)c1,1.1
23,O=S(=O)(Nc1ccc(-c2ccccc2)cc1)c1ccc(NCc2cccc(Cl)c2O)cc1,5.6
24,O=S(=O)(Nc1nccs1)c1ccc(NCc2cccc(Br)c2O)cc1,14
